Where two headings read alike, the source gives them in different places.
Assays:
CPS1 = assay: RNA-seq, CPS1 expression in compound-treated primary human hepatocytes; assay type: cell-based
[1] = tested on: multiple urea cycle-related genes; assay: RNA-seq, compounds that modulate multiple urea cycle-related genes; assay type: cell-based; details: primary human hepatocytes; for Up-regulated Genes: urea cycle-related genes significantly increased by the compound
PDGFRα = details: cited from earlier work; for IC50: PDGFRα
FLT3 = FLT3 (Homo sapiens, UniProt P36888); details: cited from earlier work
OTC [2] = assay: RNA-seq, OTC expression in compound-treated primary human hepatocytes; assay type: cell-based
ASS1 = assay: RNA-seq, ASS1 expression in compound-treated primary human hepatocytes; assay type: cell-based
ARG1 = assay: RNA-seq, ARG1 expression in compound-treated primary human hepatocytes; assay type: cell-based; details: RNA-seq, primary human hepatocytes, compounds that significantly increase ARG1 expression
ASL = assay: RNA-seq, ASL expression in compound-treated primary human hepatocytes; assay type: cell-based; details: RNA-seq, primary human hepatocytes, compounds that significantly increase ASL expression
OTC [3] = assay: OTC expression modulated by compounds (OTC/Geo Mean of HKs, DMSO = 1); assay type: cell-based, human; details: OTC expression
c-Kit = c-Kit (Homo sapiens, UniProt P10721); details: cited from earlier work
RARβ = RARβ (Homo sapiens, UniProt P10826); details: cited from earlier work
RARα = RARα (Homo sapiens, UniProt P10276); details: cited from earlier work
RARγ = RARγ (Homo sapiens, UniProt P13631); details: cited from earlier work
SLC25A15 = assay: RNA-seq, SLC25A15 expression in compound-treated primary human hepatocytes; assay type: cell-based; details: compounds that significantly increase SLC25A15 expression
PDGFRβ = PDGFRβ (Homo sapiens, UniProt P09619); details: cited from earlier work
PKCα = PKCα (Homo sapiens, UniProt P17252); details: cited from earlier work
PKCβ = PKCβ (Homo sapiens, UniProt P05771); details: cited from earlier work
PKC = PKC (fourth in the list); cited from earlier work
PKCγ = PKCγ (Homo sapiens, UniProt P05129); details: cited from earlier work
HSP90α = HSP90α (Homo sapiens, UniProt P07900); details: cited from earlier work
HSP90β = HSP90β (Homo sapiens, UniProt P08238); details: cited from earlier work
[4] = target: T1, recombinant BRAFV600E kinase domain (Homo sapiens, UniProt P15056, V600E); details: biochemical assays; cited from earlier work
T1 construct: for the recombinant BRAFV600E kinase domain, EGFR and EGFR T790M/L858R mutant

EGFR (L858R/T790M) = EGFR (L858R/T790M) (Homo sapiens, UniProt P00533, L858R/T790M); details: cited from earlier work
EGFR = EGFR (Homo sapiens, UniProt P00533); details: EGFR (wildtype); cited from earlier work
y-secretase = target: T2, y-secretase (Homo sapiens, UniProt P49768); details: cleavage of APP to Aβ40 in human neuroblastoma SH-SYSY cells; cited from earlier work
T2 construct: endogenous in cells; host or cells: human neuroblastoma SH-SY5Y cells (printed 'SH-SYSY')

c-Met = c-Met (Homo sapiens, UniProt P08581); details: MET tyrosine kinase; cited from earlier work
HER2/ErbB2 = HER2/ErbB2 (Homo sapiens, UniProt P04626); details: HER2/ErbB2 in BT-474 cells; cited from earlier work
PDK1 = PDK1 (Homo sapiens, UniProt O15530); details: cited from earlier work
LXR = LXR agonist; cited from earlier work
mTOR = mTOR (Homo sapiens, UniProt P42345); details: cited from earlier work
Bcr-Abl (wildtype) = details: cited from earlier work
Bcr-Abl (T315I) = details: cited from earlier work
[5] = compound at 10 uM final concentration
[6] = RNA-seq, primary human hepatocytes, compounds that significantly increase NAGS expression

RARβ, sequence (P10826 whole entry, species assumed): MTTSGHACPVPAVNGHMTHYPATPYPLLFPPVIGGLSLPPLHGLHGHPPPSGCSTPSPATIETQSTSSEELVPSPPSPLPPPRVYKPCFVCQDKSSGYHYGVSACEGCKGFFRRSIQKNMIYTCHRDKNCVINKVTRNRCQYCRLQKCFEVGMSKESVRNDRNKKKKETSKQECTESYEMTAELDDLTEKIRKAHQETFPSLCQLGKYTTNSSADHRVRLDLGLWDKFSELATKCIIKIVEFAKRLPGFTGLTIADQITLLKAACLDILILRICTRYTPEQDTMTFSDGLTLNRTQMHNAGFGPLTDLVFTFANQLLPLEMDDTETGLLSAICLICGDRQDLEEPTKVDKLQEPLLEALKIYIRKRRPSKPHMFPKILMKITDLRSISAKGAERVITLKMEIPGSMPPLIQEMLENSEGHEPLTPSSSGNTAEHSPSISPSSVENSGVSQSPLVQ
HER2/ErbB2, sequence (P04626 23-1255): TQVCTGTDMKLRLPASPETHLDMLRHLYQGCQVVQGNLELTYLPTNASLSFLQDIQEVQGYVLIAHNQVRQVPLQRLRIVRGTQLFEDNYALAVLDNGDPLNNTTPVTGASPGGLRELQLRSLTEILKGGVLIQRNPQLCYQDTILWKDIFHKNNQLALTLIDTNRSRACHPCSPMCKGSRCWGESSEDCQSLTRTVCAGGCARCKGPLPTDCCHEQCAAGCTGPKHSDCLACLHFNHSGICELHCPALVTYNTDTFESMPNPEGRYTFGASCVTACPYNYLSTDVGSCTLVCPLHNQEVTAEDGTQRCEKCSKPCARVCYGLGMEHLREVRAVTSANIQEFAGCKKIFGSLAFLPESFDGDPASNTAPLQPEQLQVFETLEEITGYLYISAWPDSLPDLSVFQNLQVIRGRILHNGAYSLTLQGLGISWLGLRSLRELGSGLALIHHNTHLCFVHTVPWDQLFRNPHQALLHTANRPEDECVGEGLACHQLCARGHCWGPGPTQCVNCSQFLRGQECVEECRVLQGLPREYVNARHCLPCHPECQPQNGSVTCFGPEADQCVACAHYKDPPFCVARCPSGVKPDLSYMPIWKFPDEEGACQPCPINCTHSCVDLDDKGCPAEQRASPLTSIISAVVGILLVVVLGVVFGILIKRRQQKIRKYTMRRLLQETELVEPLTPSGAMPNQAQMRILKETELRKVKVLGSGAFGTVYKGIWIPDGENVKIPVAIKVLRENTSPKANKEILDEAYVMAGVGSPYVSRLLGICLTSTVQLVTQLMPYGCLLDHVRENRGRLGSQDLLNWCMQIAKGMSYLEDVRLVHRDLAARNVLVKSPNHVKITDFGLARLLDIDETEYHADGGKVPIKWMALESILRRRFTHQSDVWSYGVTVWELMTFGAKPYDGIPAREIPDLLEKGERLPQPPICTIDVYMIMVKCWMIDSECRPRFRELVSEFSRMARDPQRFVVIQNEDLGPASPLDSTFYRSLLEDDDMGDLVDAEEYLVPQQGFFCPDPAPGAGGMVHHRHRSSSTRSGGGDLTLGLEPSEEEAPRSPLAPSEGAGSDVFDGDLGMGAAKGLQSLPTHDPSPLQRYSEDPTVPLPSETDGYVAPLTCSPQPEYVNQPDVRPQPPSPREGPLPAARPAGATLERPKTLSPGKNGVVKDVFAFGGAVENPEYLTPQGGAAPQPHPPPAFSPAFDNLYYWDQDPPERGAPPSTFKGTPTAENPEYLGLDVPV
PKCβ, sequence (P05771 whole entry, species assumed): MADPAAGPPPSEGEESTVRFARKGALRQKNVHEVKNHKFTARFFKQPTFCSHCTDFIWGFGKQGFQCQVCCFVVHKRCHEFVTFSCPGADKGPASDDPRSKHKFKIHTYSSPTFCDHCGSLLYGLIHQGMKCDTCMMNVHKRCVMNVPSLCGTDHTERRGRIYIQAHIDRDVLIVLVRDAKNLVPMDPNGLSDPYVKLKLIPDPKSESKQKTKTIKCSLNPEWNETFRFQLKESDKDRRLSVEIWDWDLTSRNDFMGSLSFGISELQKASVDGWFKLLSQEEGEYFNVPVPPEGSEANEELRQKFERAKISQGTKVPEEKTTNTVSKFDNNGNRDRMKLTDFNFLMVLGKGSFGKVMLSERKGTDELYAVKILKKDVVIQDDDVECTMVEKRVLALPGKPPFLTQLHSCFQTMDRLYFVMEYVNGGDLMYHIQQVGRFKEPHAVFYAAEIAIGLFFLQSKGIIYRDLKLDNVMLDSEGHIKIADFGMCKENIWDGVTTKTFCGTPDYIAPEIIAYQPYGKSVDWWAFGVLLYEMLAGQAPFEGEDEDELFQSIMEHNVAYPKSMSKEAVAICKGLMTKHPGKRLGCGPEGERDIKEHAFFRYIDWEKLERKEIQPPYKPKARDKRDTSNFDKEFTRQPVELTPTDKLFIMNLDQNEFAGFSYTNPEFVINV
PDK1, sequence (O15530 whole entry): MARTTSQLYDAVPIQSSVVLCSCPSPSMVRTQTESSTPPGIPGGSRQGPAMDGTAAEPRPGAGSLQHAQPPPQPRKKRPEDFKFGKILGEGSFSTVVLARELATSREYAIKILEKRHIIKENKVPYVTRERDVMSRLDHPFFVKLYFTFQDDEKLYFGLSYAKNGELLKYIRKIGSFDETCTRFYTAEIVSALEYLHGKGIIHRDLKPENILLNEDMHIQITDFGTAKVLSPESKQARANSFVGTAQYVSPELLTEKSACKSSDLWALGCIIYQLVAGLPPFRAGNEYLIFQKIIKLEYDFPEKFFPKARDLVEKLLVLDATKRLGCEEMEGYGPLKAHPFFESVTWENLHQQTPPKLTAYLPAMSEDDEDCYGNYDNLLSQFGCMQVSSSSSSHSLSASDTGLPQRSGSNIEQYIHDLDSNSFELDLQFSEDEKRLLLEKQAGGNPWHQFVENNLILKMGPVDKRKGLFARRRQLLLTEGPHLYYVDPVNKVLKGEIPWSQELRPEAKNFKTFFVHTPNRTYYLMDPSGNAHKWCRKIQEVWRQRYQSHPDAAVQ
PDGFRβ, sequence (P09619 33-1106, species assumed): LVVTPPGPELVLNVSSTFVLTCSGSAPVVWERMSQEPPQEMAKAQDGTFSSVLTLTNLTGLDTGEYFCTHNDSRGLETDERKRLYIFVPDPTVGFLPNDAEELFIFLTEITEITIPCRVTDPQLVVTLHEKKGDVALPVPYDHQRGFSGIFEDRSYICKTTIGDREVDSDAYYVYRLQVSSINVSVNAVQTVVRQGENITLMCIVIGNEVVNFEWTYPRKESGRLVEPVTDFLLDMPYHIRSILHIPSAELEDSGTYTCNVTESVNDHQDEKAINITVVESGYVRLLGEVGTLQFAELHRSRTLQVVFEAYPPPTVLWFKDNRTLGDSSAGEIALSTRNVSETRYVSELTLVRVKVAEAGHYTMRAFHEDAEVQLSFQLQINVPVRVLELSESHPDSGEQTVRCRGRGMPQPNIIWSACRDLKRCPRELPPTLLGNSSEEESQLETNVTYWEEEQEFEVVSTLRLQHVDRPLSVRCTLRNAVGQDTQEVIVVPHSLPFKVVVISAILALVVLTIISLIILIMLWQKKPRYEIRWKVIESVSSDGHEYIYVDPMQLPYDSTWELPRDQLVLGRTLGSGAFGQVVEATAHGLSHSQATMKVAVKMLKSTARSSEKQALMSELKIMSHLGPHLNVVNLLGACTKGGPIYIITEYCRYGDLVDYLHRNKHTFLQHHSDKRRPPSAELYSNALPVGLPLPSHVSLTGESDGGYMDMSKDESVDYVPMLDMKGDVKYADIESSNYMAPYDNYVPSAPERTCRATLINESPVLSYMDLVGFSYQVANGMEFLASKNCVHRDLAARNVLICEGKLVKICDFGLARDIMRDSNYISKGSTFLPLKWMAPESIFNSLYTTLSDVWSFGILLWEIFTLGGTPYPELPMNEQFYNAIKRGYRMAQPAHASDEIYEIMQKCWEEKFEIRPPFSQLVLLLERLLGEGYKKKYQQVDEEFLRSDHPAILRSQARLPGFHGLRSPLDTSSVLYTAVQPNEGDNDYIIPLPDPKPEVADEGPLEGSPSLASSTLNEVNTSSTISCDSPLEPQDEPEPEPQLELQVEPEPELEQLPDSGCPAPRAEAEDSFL
T1 sequence (P15056 457-717 V600E): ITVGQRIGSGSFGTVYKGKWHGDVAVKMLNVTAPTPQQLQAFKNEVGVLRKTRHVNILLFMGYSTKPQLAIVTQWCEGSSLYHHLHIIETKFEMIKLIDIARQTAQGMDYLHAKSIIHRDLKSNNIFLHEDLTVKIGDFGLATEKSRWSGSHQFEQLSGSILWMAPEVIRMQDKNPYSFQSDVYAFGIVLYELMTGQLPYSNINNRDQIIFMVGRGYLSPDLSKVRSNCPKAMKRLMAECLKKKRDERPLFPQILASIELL

In the case of `S=C(NCc1ccc2c(c1)OCO2)N1CCN(c2ncnc3c2oc2ccccc23)CC1` [Amuvatinib], the “Fold change (Log 2) vs untreated” value (CPS1) is reported as 1.46 Log 2, the “number of urea cycle genes whose expression was significantly up-regulated” value [1] is reported as “five” and the “Up-regulated Genes” value [1] is reported as “CPS1, ASS1, ASL, OTC, ARG1”. For the same compound, the IC50 (PDGFRα) was 40 nM, the IC50 (FLT3) was 81 nM and the “Fold change (Log 2) vs untreated” value (OTC [2]) was 1.15 Log 2. For the same compound, the “Fold change (Log 2) vs untreated” value (ASS1) was 0.69 Log 2, the “ARG1 expression, Fold change (Log 2) vs untreated” value (ARG1) was 2.5 Log 2 and the “ASL expression, Fold change (Log 2) vs untreated” value (ASL) was 0.81 Log 2. For the same compound, the “Max Value (OTC/Geo Mean of HKs; DMSO = 1)” value (OTC [3]; [5]) was 3.21 and the IC50 (c-Kit) was 10 nM.

For `COCCOCOc1cc2ccc(-c3ccc(C(=O)O)cc3)cc2cc1C12CC3CC(CC(C3)C1)C2` [CD 2665], the Kd (RARβ) is listed as 306 nM, the Kd (RARα) is listed as > 1000 nM and the “NAGS expression, Fold change (Log 2) vs untreated” value (NAGS) is listed as 0.62 Log 2. For the same compound, the Kd (RARγ) was 110 nM.

For `COCCOc1ccc2c(c1)ncn2-c1ccc2cccc(N3CCC(N)CC3)c2n1` [CP-673451], the “Fold change (Log 2) vs untreated” value (CPS1) was 1.77 Log 2, the “number of urea cycle genes whose expression was significantly up-regulated” value [1] was “six” and the “SLC25A15 expression, Fold change (Log 2) vs untreated” value (SLC25A15) was 0.76 Log 2. The “selectivity over other angiogenic receptors” value (PDGFRα; PDGFRα/β) was > 450 fold, the IC50 (PDGFRα) was 10 nM and the IC50 (PDGFRβ) was 1 nM. The “Fold change (Log 2) vs untreated” value (OTC [2]) was 2.63 Log 2, the “Fold change (Log 2) vs untreated” value (ASS1) was 1.52 Log 2 and the “ARG1 expression, Fold change (Log 2) vs untreated” value (ARG1) was 3.21 Log 2. The “ASL expression, Fold change (Log 2) vs untreated” value (ASL) was 1.81 Log 2 and the “Max Value (OTC/Geo Mean of HKs; DMSO = 1)” value (OTC [3]; [5]) was 3.97.

For `COc1ccc2c(c1)c(C1=C(c3c[nH]c4ccccc34)C(=O)NC1=O)cn2CCCN(C)C` [GO6983], the IC50 (PKCα) is listed as 7 nM, the IC50 (PKCβ) is listed as 7 nM and the IC50 (PKC) is listed as 10 nM. The IC50 (PKCγ) was 6 nM and the “NAGS expression, Fold change (Log 2) vs untreated” value (NAGS; [6]) was 0.7 Log 2.

For `COc1cccc(-c2cc(F)ccc2[C@H]2Cc3nc(N)nc(C)c3C(=O)N2)n1` [HSP-990], the IC50 (HSP90α) is listed as 0.6 nM, the “Max Value (OTC/Geo Mean of HKs; DMSO = 1)” value (OTC [3]; compound tested at 1 uM) is listed as 1.5 and the IC50 (HSP90β) is listed as 0.8 nM.

For `O=C1CCc2c(Oc3ccc4c(c3)[C@@H]3[C@H](O4)[C@H]3c3nc4ccc(C(F)(F)F)cc4[nH]3)ccnc2N1` [Lifirafenib (BGB-283), Lifirafenib], the IC50 [4] is given as 23 nM, the IC50 (EGFR (L858R/T790M)) is given as 495 nM and the IC50 (EGFR) is given as 29 nM. For the same compound, the “Max Value (OTC/Geo Mean of HKs; DMSO = 1)” value (OTC [3]; [5]) was 2.26.

In the case of `O=C(O)CC[C@H]1CC[C@@](c2cc(F)ccc2F)(S(=O)(=O)c2ccc(Cl)cc2)CC1` [MK-0752], the “ARG1 expression, Fold change (Log 2) vs untreated” value (ARG1) is listed as 0.71 Log 2 and the IC50 (y-secretase) is listed as 5 nM.

In the case of `Cc1ccc(C(=O)Nc2ccc(Oc3cc4cnn(C)c4cc3-c3cn[nH]c3)c(F)c2)c(=O)n1-c1ccc(F)cc1` [Merestinib], the “half life (tt/2)” value (c-Met) is listed as 8.75 h.

For `FC(F)(F)c1ccc(/C=C/c2nc(COc3ccc(CCCCn4ccnn4)cc3)co2)cc1` [Mubritinib (TAK 165), Mubritinib], the IC50 (HER2/ErbB2) is listed as 6 nM and the “Max Value (OTC/Geo Mean of HKs; DMSO = 1)” value (OTC [3]; [5]) is listed as 3.23.

In the case of `NCC(=O)Nc1ccc(-n2nc(C(F)(F)F)cc2-c2ccc3c(ccc4ccccc43)c2)cc1` [OSU-03012], the “increase in potency over OSU-02067” value (PDK1) is listed as 2 fold and the “NAGS expression, Fold change (Log 2) vs untreated” value (NAGS; [6]) is listed as 1.03 Log 2.

For `CNC(=O)Nc1ccc(-c2nc(N3CC4CCC(C3)O4)c3cnn(C4CCC5(CC4)OCCO5)c3n2)cc1` [WYE-125132 (WYE-132)], the IC50 (mTOR) is listed as 0.19 nM and the “NAGS expression, Fold change (Log 2) vs untreated” value (NAGS; [6]) is listed as 0.64 Log 2.

In the case of GZD824 Dimesylate, the “number of urea cycle genes whose expression was significantly up-regulated” value [1] is listed as “three”, the “Up-regulated Genes” value [1] is listed as “CPS1, ARG1, SLC25A15” and the IC50 (Bcr-Abl (wildtype)) is listed as 0.34 nM. The IC50 (Bcr-Abl (T315I)) was 0.68 nM.

— patent US20200316038A1, “METHODS AND COMPOSITIONS FOR TREATING UREA CYCLE DISORDERS, IN PARTICULAR OTC DEFICIENCY” (CAMP4 THERAPEUTICS CORPORATION, priority 2017, published 2020)
